In patent US20030139431A1 (priority 2001, published 2003):

Assays:
rNPFF1 [1] = molecular target: T1, rNPFF1 (Rattus norvegicus, UniProt Q9EP86); experiment: Binding affinity at cloned recombinant rat NPFF1 receptor
T1 construct: expressed in transfected cells

rNPFF2 [2] = molecular target: T2, rNPFF2 (Rattus norvegicus, UniProt Q9EQD2); experiment: Binding affinity at cloned recombinant rat NPFF2 receptor
T2 construct: expressed in transfected cells

rNPFF2 [3] = molecular target: T2, rNPFF2; experiment: Functional assay (agonist potency, intrinsic activity) at cloned rat NPFF2 receptor; type: cell-based; conditions: for rNPFF2 IA (intrinsic activity): percent of maximum response elicited by neuropeptide FF, rat NPFF2; for EC50: recombinant rat NPFF2
Procedure: (§1) Intrinsic activity of a compound is measured as the percent of maximum response.

rNPFF1 [4] = molecular target: T1, rNPFF1; experiment: Functional assay (agonist potency, intrinsic activity) at cloned rat NPFF1 receptor; type: cell-based; conditions: for rNPFF1 IA (intrinsic activity): percent of maximum response elicited by neuropeptide FF, rat NPFF1; for EC50: recombinant rat NPFF1
Procedure: as §1

T2 sequence (Q9EQD2 whole entry): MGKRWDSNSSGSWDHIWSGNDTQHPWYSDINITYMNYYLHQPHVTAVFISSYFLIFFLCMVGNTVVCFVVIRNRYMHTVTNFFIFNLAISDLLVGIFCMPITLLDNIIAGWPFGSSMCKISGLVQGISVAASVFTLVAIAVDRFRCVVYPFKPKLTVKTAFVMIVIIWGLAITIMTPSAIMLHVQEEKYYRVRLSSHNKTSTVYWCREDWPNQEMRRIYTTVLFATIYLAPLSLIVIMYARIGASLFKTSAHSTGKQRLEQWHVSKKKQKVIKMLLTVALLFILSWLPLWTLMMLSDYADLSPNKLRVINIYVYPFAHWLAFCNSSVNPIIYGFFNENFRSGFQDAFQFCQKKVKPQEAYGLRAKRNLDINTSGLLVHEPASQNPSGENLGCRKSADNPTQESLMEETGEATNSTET
T1 sequence (Q9EP86 whole entry): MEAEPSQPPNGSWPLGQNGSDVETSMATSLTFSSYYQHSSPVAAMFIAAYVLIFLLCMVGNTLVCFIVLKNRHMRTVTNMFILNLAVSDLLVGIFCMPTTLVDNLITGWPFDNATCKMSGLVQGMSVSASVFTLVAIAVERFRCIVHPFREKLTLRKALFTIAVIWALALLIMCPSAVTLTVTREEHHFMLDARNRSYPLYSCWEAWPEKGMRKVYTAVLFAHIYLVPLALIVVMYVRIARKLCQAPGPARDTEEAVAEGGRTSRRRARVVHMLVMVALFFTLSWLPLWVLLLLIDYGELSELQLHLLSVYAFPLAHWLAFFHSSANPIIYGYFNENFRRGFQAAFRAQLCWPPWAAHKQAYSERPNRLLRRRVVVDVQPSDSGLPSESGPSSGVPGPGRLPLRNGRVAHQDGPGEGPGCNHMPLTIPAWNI

| SMILES | Ki (rNPFF1 [1]) | Ki (rNPFF2 [2]) | rNPFF2 IA (intrinsic activity) (rNPFF2 [3]) | EC50 (rNPFF2 [3]) | rNPFF1 IA (intrinsic activity) (rNPFF1 [4]) | EC50 (rNPFF1 [4]) |
| --- | --- | --- | --- | --- | --- | --- |
| Cc1ccc2nc(NC(=N)N)nc(C)c2c1 [Compound 1002, N-(4,6-dimethyl-2-quinazolinyl)guanidine] | 134 nM | 3920 nM | 24% NPFF | 5620 nM | Inactive | > 10000 nM |
| CCc1ccc2nc(NC(=N)N)nc(C)c2c1 [Compound 1003, N-(6-ethyl-4-methyl-2-quinazolinyl)guanidine] | 238 nM | 1640 nM | 83% NPFF | 392 nM | Inactive | > 10000 nM |
| Cc1nc(NC(=N)N)nc2ccc(C(C)(C)C)cc12 [Compound 1004, N-(6-tert-butyl-4-methyl-2-quinazolinyl)guanidine] | 710 nM | 1490 nM | 90% NPFF | 440 nM | 36% NPFF | 1470 nM |
| Cc1nc(NC(=N)N)nc2ccc(OCCCCCOc3ccccc3)cc12 [Compound 1005, N-4-methyl-6-[(5-phenoxypentyl)oxy]-2-quinazolinylguanidine] | 316 nM | 2140 nM | 21% NPFF | 3160 nM | Inactive | > 10000 nM |
| Cc1nc(NC(=N)N)nc2cc(OCc3ccccc3)ccc12 [Compound 1006, N-[7-(benzyloxy)-4-methyl-2-quinazolinyl]guanidine] | 410 nM | 1070 nM | 22% NPFF | 1080 nM | 15% NPFF | > 10000 nM |
| CCCc1ccc2nc(NC(=N)N)nc(C)c2c1 [Compound 1008, N-(4-methyl-6-propyl-2-quinazolinyl)guanidine] | 155 nM | 1120 nM | 85% NPFF | 619 nM | Inactive | > 10000 nM |
| CCCCCCCCc1ccc2nc(NC(=N)N)nc(C)c2c1 [Compound 1009, N-(4-methyl-6-octyl-2-quinazolinyl)guanidine] | 312 nM | 703 nM | 22% NPFF | 5620 nM | Inactive |  |
| Cc1nc(NC(=N)N)nc2ccc(-c3ccccc3)cc12 [Compound 1010, N-(4-methyl-6-phenyl-2-quinazolinyl)guanidine] | 311 nM | 3480 nM | 22% NPFF | > 10000 nM | Inactive | > 10000 nM |
| COc1ccc2nc(NC(=N)N)nc(C)c2c1 [Compound 1011, N-(6-methoxy-4-methyl-2-quinazolinyl)guanidine] | 201 nM | > 10000 nM | Inactive | > 10000 nM | Inactive | > 10000 nM |
| CCCCOc1ccc2nc(NC(=N)N)nc(C)c2c1 [Compound 1012, N-(6-butoxy-4-methyl-2-quinazolinyl)guanidine] | 733 nM | 4850 nM | 80% NPFF | 1620 nM | Inactive | > 10000 nM |
| Cc1nc(NC(=N)N)nc2ccc(Cl)cc12 [Compound 1013, N-(6-chloro-4-methyl-2-quinazolinyl)guanidine] | 332 nM | 2020 nM | 52% NPFF | 690 nM | Inactive | > 10000 nM |
| Cc1nc(NC(=N)N)nc2cc(Br)ccc12 [Compound 1014, N-(7-bromo-4-methyl-2-quinazolinyl)guanidine] | 300 nM | 3440 nM | 47% NPFF | 2460 nM | Inactive | > 10000 nM |
| Cc1cc2nc(NC(=N)N)nc(C)c2cc1C [Compound 1015, N-(4,6,7-trimethyl-2-quinazolinyl)guanidine] | 42 nM | 1110 nM | 56% NPFF | 272 nM | Inactive | > 10000 nM |
| COc1cc2c(C)nc(NC(=N)N)nc2cc1C [Compound 1016, N-(6-methoxy-4,7-dimethyl-2-quinazolinyl)guanidine] | 565 nM | 2500 nM | 74% NPFF | 3160 nM | Inactive | > 10000 nM |
| Cc1cc2nc(NC(=N)N)nc(C)c2cc1O [Compound 1017, N-(6-hydroxy-4,7-dimethyl-2-quinazolinyl)guanidine] | 234 nM | 5920 nM | 23% NPFF | > 10000 nM | Inactive | > 10000 nM |
| CCCCOc1cc2nc(NC(=N)N)nc(C)c2cc1OCCCC [Compound 1018, N-(6,7-dibutoxy-4-methyl-2-quinazolinyl)guanidine] | 303 nM | 1300 nM | Inactive | > 10000 nM | Inactive | > 10000 nM |
| Cc1nc(NC(=N)N)nc2cc(F)c(F)cc12 [Compound 1019, N-(6,7-difluoro-4-methyl-2-quinazolinyl)guanidine] | 57 nM | 2870 nM | 31% NPFF | 2540 nM | Inactive | > 10000 nM |
| CCc1ccc2c(C)nc(NC(=N)N)nc2c1 [Compound 1020, N-(7-ethyl-4-methyl-2-quinazolinyl)guanidine] | 18 nM | 273 nM | 90% NPFF | 695 nM | Inactive | > 10000 nM |
| Cc1nc(NC(=N)N)nc2cc(C(C)C)ccc12 [Compound 1021, N-(7-isopropyl-4-methyl-2-quinazolinyl)guanidine] | 56 nM | 881 nM | 76% NPFF | 283 nM | Inactive | > 10000 nM |
| CCOc1ccc2c(C)nc(NC(=N)N)nc2c1 [Compound 1024, N-(7-ethoxy-4-methyl-2-quinazolinyl)guanidine] | 659 nM | 5590 nM | Inactive | > 10000 nM | Inactive | > 10000 nM |
| Cc1nc(NC(=N)N)nc2cc(OC(C)C)ccc12 [Compound 1025, N-[4-methyl-7-(isopropoxy)-2-quinazolinyl]guanidine] | 253 nM | 4530 nM | 27% NPFF | 3160 nM | Inactive | > 10000 nM |
| Cc1nc(NC(=N)N)nc2ccc(Br)cc12 [Compound 1026, N-(6-bromo-4-methyl-2-quinazolinyl)guanidine] | 802 nM | > 10000 nM | 19% NPFF | > 10000 nM | Inactive | > 10000 nM |
| Cc1nc(NC(=N)N)nc2ccc(OCc3ccccc3)cc12 [Compound 1028, N-[6-(benzyloxy)-4-methyl-2-quinazolinyl]guanidine] | 386 nM | 817 nM | 79% NPFF | 758 nM | Inactive | > 10000 nM |
| Cc1nc(NC(=N)N)nc2ccc(C3CCCCC3)cc12 [Compound 1029, N-(6-cyclohexyl-4-methyl-2-quinazolinyl)guanidine] | 912 nM | 1200 nM | 31% NPFF | 2050 nM | 28% NPFF | > 10000 nM |
